In the supplement of paper PMC10307832:

Tests used:
Experiment in all cases: relative viability (nuclei count vs DMSO), 5 days (fraction); higher = more cells survive
Calu-6 = system: Calu-6
In short: (§1)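 Dosing by pin tool came one day after lung cancer cell lines were seeded in 1536-well plates, using either one drug or a fixed anchor-drug dose plus five library-drug doses (not always all listed) in √10 steps. After 5 days, nuclei were counted on 4× images. Relative viability is treated-well nuclei count divided by vehicle-well nuclei count, and values are medians of duplicate plates.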

UMC-11 = system: UMC-11
In short: as §1

EBC-1 = system: EBC-1
In short: as §1

IA-LM = system: IA-LM
In short: as §1

NCI-H1703 = system: NCI-H1703
In short: as §1

A549 = system: A549
In short: as §1

NCI-H1299 = system: NCI-H1299
In short: as §1

Structure (SMILES)	relative viability (Calu-6; first compound 0.04 µM)	relative viability (Calu-6; first compound 0.1265 µM)	relative viability (Calu-6; first compound 0.4 µM)	relative viability (Calu-6; first compound 1.265 µM)	relative viability (Calu-6; first compound 4 µM)	relative viability (UMC-11; first compound 0.04 µM)	relative viability (UMC-11; first compound 0.1265 µM)	relative viability (UMC-11; first compound 0.4 µM)	relative viability (UMC-11; first compound 1.265 µM)	relative viability (UMC-11; first compound 4 µM)	relative viability (EBC-1; first compound 0.04 µM)	relative viability (EBC-1; first compound 0.1265 µM)	relative viability (EBC-1; first compound 0.4 µM)	relative viability (EBC-1; first compound 1.265 µM)	relative viability (EBC-1; first compound 4 µM)	relative viability (IA-LM; first compound 0.04 µM)	relative viability (IA-LM; first compound 0.1265 µM)	relative viability (IA-LM; first compound 0.4 µM)	relative viability (IA-LM; first compound 1.265 µM)	relative viability (IA-LM; first compound 4 µM)	relative viability (NCI-H1703; first compound 0.04 µM)	relative viability (NCI-H1703; first compound 0.1265 µM)	relative viability (NCI-H1703; first compound 0.4 µM)	relative viability (NCI-H1703; first compound 1.265 µM)	relative viability (NCI-H1703; first compound 4 µM)	relative viability (A549; first compound 0.04 µM)	relative viability (A549; first compound 0.1265 µM)	relative viability (A549; first compound 0.4 µM)	relative viability (A549; first compound 1.265 µM)	relative viability (A549; first compound 4 µM)	relative viability (NCI-H1299; first compound 0.04 µM)	relative viability (NCI-H1299; first compound 0.1265 µM)	relative viability (NCI-H1299; first compound 0.4 µM)	relative viability (NCI-H1299; first compound 1.265 µM)	relative viability (NCI-H1299; first compound 4 µM)
COc1cc(N2CCC(C(N)=O)CC2)ccc1Nc1nc(N)c(Cl)c(Nc2ccccc2S(=O)(=O)C(C)C)n1 [HG-5-88-01] + CC1(C)CCC(c2ccc(Cl)cc2)=C(CN2CCN(c3ccc(C(=O)NS(=O)(=O)c4ccc(N[C@H](CCN5CCOCC5)CSc5ccccc5)c(S(=O)(=O)C(F)(F)F)c4)cc3)CC2)C1 [Navitoclax] (partner 0.5 µM)	0.958	0.86	0.717	0.693	0.46	0.338	0.376	0.333	0.322	0.303	0.407	0.457	0.427	0.241	0.217	0.835	0.794	0.731	0.825	0.802	0.719	1.22	1.2	0.926	0.762	1.23	1.21	1.07	0.87	0.687	1.03	1.08	1.03	1.06	1.02
COc1cc(N2CCC(C(N)=O)CC2)ccc1Nc1nc(N)c(Cl)c(Nc2ccccc2S(=O)(=O)C(C)C)n1 [HG-5-88-01] + CC(C)C[C@H](NC(=O)[C@H](Cc1ccccc1)NC(=O)c1cnccn1)B(O)O [Bortezomib] (partner 0.002 µM)	1.03	0.998	0.978	0.925	0.841	0.769	0.82	0.642	0.837	0.494	0.567	0.624	0.549	0.474	0.241	0.835	0.849	0.724	0.812	0.666	0.263	0.42	0.384	0.312	0.239						1.02	1.02	1.03	1.04	1.04
Clc1ccc(Nc2nnc(Cc3ccncc3)c3ccccc23)cc1 [Vatalanib] + CC(C)C[C@H](NC(=O)[C@H](Cc1ccccc1)NC(=O)c1cnccn1)B(O)O [Bortezomib] (partner 0.002 µM)	1.07	0.991	1.18	0.911	1.1	0.802	0.771	0.709	0.717	0.688	0.489	0.498	0.807	0.519	0.524	0.963	0.955	0.91	0.763	0.871	0.464		0.558	0.237	0.21						1.02	1.06	1	1.04	1.02
